Data as given in ChEMBL document CHEMBL1201862, “PubChem BioAssay data set” (2004).
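Exposure lasted 48 hours, with cells grown in 96-well plates and compounds tested at five concentrations. GI50: concentration for 50% inhibition of growth.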 Calls of active or inactive are those of the source. Cut-off read from the data, not from the text of the source: active = GI50 up to about 1.1 µM and inactive = higher.

Assays:
Test in all cases: inhibition of tumour cell growth, NCI panel, 48 h
[1] = system: SNB-75
[2] = system: OVCAR-3
[3] = system: EKVX
[4] = system: OVCAR-8
[5] = system: M14
[6] = system: OVCAR-5
[7] = system: RXF 393
[8] = system: SR
[9] = system: HT-29
[10] = system: TK-10
[11] = system: K562
[12] = system: COLO 205
[13] = system: RPMI-8226
[14] = system: HCC 2998
[15] = system: Hs-578T
[16] = system: MCF7
[17] = system: MDA-MB-231
[18] = system: NCI/ADR-RES
[19] = system: MDA-N

Structure (SMILES)	GI50 [1]	GI50 [2]	GI50 [3]	GI50 [4]	GI50 [5]	GI50 [6]	GI50 [7]	GI50 [8]	GI50 [9]	GI50 [10]	GI50 [11]	GI50 [12]	GI50 [13]	GI50 [14]	GI50 [15]	GI50 [16]	GI50 [17]	GI50 [18]	GI50 [19]
CC(=O)CNC(=O)OC(C)(C)C	> 100 µM (inactive)	> 100 µM (inactive)	> 100 µM (inactive)	> 100 µM (inactive)	> 100 µM (inactive)	> 100 µM (inactive)	> 100 µM (inactive)	> 100 µM (inactive)	> 100 µM (inactive)	> 100 µM (inactive)	> 100 µM (inactive)								
O=C(COc1ccc2c(=O)cc(-c3ccc(Cl)cc3)oc2c1)N1CCN(c2ccccc2)CC1	> 100 µM (inactive)	> 100 µM (inactive)	> 100 µM (inactive)	> 100 µM (inactive)	> 100 µM (inactive)	> 100 µM (inactive)	> 100 µM (inactive)	> 100 µM (inactive)	> 100 µM (inactive)	> 100 µM (inactive)	4.56 µM (inactive)	4.37 µM (inactive)	> 100 µM (inactive)	> 100 µM (inactive)					
COc1ccc2c(c1)CCN=C2c1ccccc1CCCCl	17.3 µM (inactive)	46.1 µM (inactive)	17.7 µM (inactive)	16.8 µM (inactive)	29.3 µM (inactive)	46.8 µM (inactive)	22.6 µM (inactive)		13.6 µM (inactive)	94 µM (inactive)	5.62 µM (inactive)	11 µM (inactive)	1.84 µM (inactive)	6.25 µM (inactive)	16.5 µM (inactive)	23.1 µM (inactive)	19 µM (inactive)	26.4 µM (inactive)	
OC(c1ccccc1)c1c(-c2ccccc2)oc(-c2ccccc2)c1C(O)c1ccccc1 (centres undefined)		5.73 µM (inactive)	5.75 µM (inactive)		10 µM (inactive)	15.6 µM (inactive)	6.5 µM (inactive)	9.95 µM (inactive)	11.1 µM (inactive)	15.6 µM (inactive)	3.58 µM (inactive)	5.87 µM (inactive)	2.72 µM (inactive)	16.8 µM (inactive)	13.5 µM (inactive)	4.37 µM (inactive)		9.02 µM (inactive)	9.1 µM (inactive)
C1=C2SSC3=CC=C(SSc4ccc(s4)SSC4=CC=C(SSC(=C1)S2)S4)S3	> 100 µM (inactive)	> 100 µM (inactive)	> 100 µM (inactive)	> 100 µM (inactive)	> 100 µM (inactive)	> 100 µM (inactive)	> 100 µM (inactive)	> 100 µM (inactive)	> 100 µM (inactive)	> 100 µM (inactive)	> 100 µM (inactive)	> 100 µM (inactive)	> 100 µM (inactive)	> 100 µM (inactive)		> 100 µM (inactive)	> 100 µM (inactive)	> 100 µM (inactive)	> 100 µM (inactive)
COc1ccc(-c2nc3c(nc2-c2ccc(OC)cc2)C(N)=NS(=O)(=O)N3)cc1	> 100 µM (inactive)	> 100 µM (inactive)	> 100 µM (inactive)	> 100 µM (inactive)		> 100 µM (inactive)	> 100 µM (inactive)		> 100 µM (inactive)	> 100 µM (inactive)	> 100 µM (inactive)	> 100 µM (inactive)	> 100 µM (inactive)	> 100 µM (inactive)					
C[C@H](N)C(=O)Nc1ccc(-c2nc3ccccc3s2)cc1Cl	16 µM (inactive)	0.153 µM (active)	11.9 µM (inactive)	26 µM (inactive)	5.78 µM (inactive)	0.27 µM (active)	15.1 µM (inactive)	3.8 µM (inactive)	16.7 µM (inactive)	0.161 µM (active)	17.1 µM (inactive)	12.5 µM (inactive)		0.56 µM (active)	20.1 µM (inactive)			30.8 µM (inactive)	13.2 µM (inactive)
C/C(=N\Nc1nc2cc(F)ccc2s1)c1ccccn1	0.661 µM (active)	0.0284 µM (active)	< 0.0141 µM (active)	0.0194 µM (active)	0.0171 µM (active)	0.716 µM (active)	1.26 µM (inactive)	0.0313 µM (active)	< 0.01 µM (active)		< 0.0147 µM (active)	< 0.01 µM (active)	0.136 µM (active)	1.92 µM (inactive)	0.335 µM (active)	0.0199 µM (active)	0.0389 µM (active)	0.0274 µM (active)	
O=c1c(F)cn2c(=O)n1CCCCCCCn1c(=O)c(F)cn(c1=O)CCCCCCC2	0.105 µM (active)	61.7 µM (inactive)	> 100 µM (inactive)	59.4 µM (inactive)	36.1 µM (inactive)	> 100 µM (inactive)	39.1 µM (inactive)	39.4 µM (inactive)	50.4 µM (inactive)	90.2 µM (inactive)	> 100 µM (inactive)	> 100 µM (inactive)	> 100 µM (inactive)	> 100 µM (inactive)		> 100 µM (inactive)	34 µM (inactive)	69 µM (inactive)	> 100 µM (inactive)
